Measured values published in ChEMBL document CHEMBL1811880, “Studies on quinones. Part 47. Synthesis of novel phenylaminophenanthridinequinones as potential antitumor agents” (Eur J Med Chem, 2011).

Legend:
MRC5 [1] = experiment: Anticancer activity against human MRC5 cells after 3 days by MTT assay; assay type: ADME, cell-based; settings: MRC5, 72 h
SK-MES-1 = experiment: Anticancer activity against human SKMES1 cells after 3 days by MTT assay; assay type: functional, cell-based; settings: SK-MES-1, 72 h
AGS = experiment: Anticancer activity against human AGS cells after 3 days by MTT assay; assay type: functional, cell-based; settings: 72 h
MRC5 [2] = experiment: Selectivity index, ratio IC50 for human MRC5 cells to IC50 for human SKMES1 cells; assay type: functional
J82 = experiment: Anticancer activity against human J82 cells after 3 days by MTT assay; assay type: functional, cell-based; settings: J82, 72 h
MRC5 [3] = experiment: Selectivity index, ratio IC50 for human MRC5 cells to IC50 for human AGS cells; assay type: functional
MRC5 [4] = experiment: Selectivity index, ratio IC50 for human MRC5 cells to IC50 for human J82 cells; assay type: functional

SMILES	IC50 (SK-MES-1)	IC50 (AGS)	IC50 (MRC5 [1])	Ratio IC50 (MRC5 [2])	IC50 (J82)	Ratio IC50 (MRC5 [3])	Ratio IC50 (MRC5 [4])
O=C1CCCc2nc(-c3ccccc3)c3c(c21)C(=O)C=CC3=O	73 µM	13.9 µM	31.2 µM		57.6 µM		
O=C1CCCc2nc(-c3ccsc3)c3c(c21)C(=O)C=CC3=O	76.7 µM	37.1 µM	71 µM		> 100 µM		
Cc1nc2c(c3c1C(=O)C(Nc1ccccc1)=CC3=O)C(=O)CCC2	5.7 µM	0.65 µM	2 µM		4.2 µM		
O=C1CCCc2nc(-c3ccco3)c3c(c21)C(=O)C=CC3=O	96.9 µM	68 µM	59 µM		80.4 µM		
Cc1nc2c(c3c1C(=O)C(Nc1ccc(O)cc1)=CC3=O)C(=O)CCC2	3.2 µM	1.2 µM	2.6 µM		1.9 µM		
CCN(C1=CC(=O)c2c(cnc3c2C(=O)CCC3)C1=O)c1ccccc1	11.7 µM	4.4 µM	8.6 µM		15.2 µM		
O=C1CCCc2nc(-c3ccsc3)c3c(c21)C(=O)C=C(Nc1ccccc1)C3=O	2.9 µM	0.35 µM	2.8 µM	6	2.5 µM	6	
O=C1CCCc2nc(-c3ccco3)c3c(c21)C(=O)C=C(Nc1ccccc1)C3=O	3.1 µM	0.58 µM	2.7 µM		2.4 µM		
O=C1C=CC(=O)c2c1cnc1c2C(=O)CCC1					15.8 µM		
O=C1CCCc2nc(-c3ccccc3)c3c(c21)C(=O)C=C(Nc1ccccc1)C3=O	2.8 µM	0.33 µM	2.7 µM	6	2.9 µM	6	
Cc1nc2c(c3c1C(=O)C(Nc1ccc(F)cc1)=CC3=O)C(=O)CCC2	3.3 µM	0.79 µM	3 µM		3.8 µM		
CN(C1=CC(=O)c2cnc3c(c2C1=O)C(=O)CCC3)c1ccccc1	8.7 µM	8.3 µM	7.3 µM		8.4 µM		
COc1cc([C@@H]2c3cc4c(cc3[C@@H](O[C@@H]3O[C@@H]5CO[C@@H](C)O[C@H]5[C@H](O)[C@H]3O)[C@H]3COC(=O)[C@H]23)OCO4)cc(OC)c1O [ETOPOSIDE]					0.8 µM		
CCN(C1=CC(=O)c2cnc3c(c2C1=O)C(=O)CCC3)c1ccccc1	17.7 µM	17.1 µM	19.6 µM		19.5 µM		

Second part, led by results:

IC50 (SK-MES-1)	IC50 (AGS)	SMILES	IC50 (MRC5 [1])	Ratio IC50 (MRC5 [2])	IC50 (J82)	Ratio IC50 (MRC5 [3])	Ratio IC50 (MRC5 [4])
1.3 µM	0.23 µM	O=C1C(Nc2ccccc2)=CC(=O)c2c1cnc1c2C(=O)CCC1	1.4 µM	6	2.1 µM	6	
10.6 µM	4.7 µM	CN(C1=CC(=O)c2c(cnc3c2C(=O)CCC3)C1=O)c1ccccc1	7.5 µM		12.9 µM		
13.5 µM	19.8 µM	COc1ccc(OC)c(NC2=CC(=O)c3cnc4cccc(O)c4c3C2=O)c1	17.2 µM		0.61 µM		28
1.8 µM	0.32 µM	COc1ccc(OC)c(NC2=CC(=O)c3c(cnc4c3C(=O)CCC4)C2=O)c1	2.6 µM	6	2.5 µM	6	
21.7 µM	1.4 µM	COc1ccc(OC)c(NC2=CC(=O)c3c(c(C)nc4c3C(=O)CCC4)C2=O)c1	5 µM		7.1 µM		
0.63 µM	0.18 µM	COc1ccc(OC)c(NC2=CC(=O)c3c(cnc4cccc(O)c34)C2=O)c1	0.53 µM		1.4 µM		
4.1 µM	1.2 µM	COc1ccc(NC2=CC(=O)c3c(c(C)nc4c3C(=O)CCC4)C2=O)cc1	5.2 µM		3 µM		
7.5 µM	3.9 µM	O=C1C=C(Nc2ccccc2)C(=O)c2c1cnc1c2C(=O)CCC1	5.9 µM		8.1 µM		
4.3 µM	0.22 µM	COc1ccccc1NC1=CC(=O)c2c(c(C)nc3c2C(=O)CCC3)C1=O	1.6 µM		3.7 µM		
3.7 µM	2.2 µM	COc1ccc(NC2=CC(=O)c3cnc4c(c3C2=O)C(=O)CCC4)cc1	4.8 µM		4 µM		
21.3 µM	32.9 µM	COc1ccc(OC)c(NC2=CC(=O)c3cnc4c(c3C2=O)C(=O)CCC4)c1	46.4 µM		56.7 µM		
2 µM	0.47 µM	COc1ccc(NC2=CC(=O)c3c(cnc4c3C(=O)CCC4)C2=O)cc1	2.6 µM		2.8 µM		
